From paper PMC8356711 (Research in Pharmaceutical Sciences, 2021) come the findings set out here.

Entries after “also recorded” stand apart in the source; their conditions may differ.

T1 sequence (C7FF04 1-392): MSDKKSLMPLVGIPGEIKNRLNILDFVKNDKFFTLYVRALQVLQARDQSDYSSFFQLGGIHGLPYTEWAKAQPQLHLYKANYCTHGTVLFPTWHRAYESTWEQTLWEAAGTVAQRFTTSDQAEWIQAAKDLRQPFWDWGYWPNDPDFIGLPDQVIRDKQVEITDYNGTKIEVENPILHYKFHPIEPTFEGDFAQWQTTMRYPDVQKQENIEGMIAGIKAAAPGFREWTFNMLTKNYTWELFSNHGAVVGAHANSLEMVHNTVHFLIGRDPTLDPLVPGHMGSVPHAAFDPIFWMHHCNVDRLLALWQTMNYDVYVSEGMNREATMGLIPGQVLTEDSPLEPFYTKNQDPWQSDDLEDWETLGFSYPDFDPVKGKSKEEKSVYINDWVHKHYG

The first assay addresses T1, mushroom tyrosinase (Agaricus bisporus, UniProt C7FF04). The assay is described as follows: biochemical.
Conditions: not given
By IC50 is commonly meant the midpoint of a concentration-inhibition curve. In the case of `COc1ccc(/C=C2\CCc3cc(O)ccc3C2=O)cc1` [C1, (E)-6-hydroxy-2-(4-methoxybenzylidene)-3,4-dihydronaphthalen-1(2H)-one], half-maximal inhibition (IC50) was put at 17.6 ± 1.1 µM. The compound `COc1cc(/C=C2\CCc3cc(O)ccc3C2=O)cc(OC)c1OC` [C2, (E) - 6-hydroxy - 2-(3,4,5-trimethoxy-benzylidene)-3,4-dihydronaphthalen-1(2H)-one] had a half-maximal inhibitory concentration (IC50) of 8.8 ± 1.8 µM. Compound `COc1ccccc1/C=C1\CCc2cc(O)ccc2C1=O` [C3, (E)-6-hydroxy-2-(2-methoxybenzylidene)-3,4-dihydronaphthalen-1(2H)-one] had an IC50 of 11.1 ± 2.5 µM. Still for that read-out and setting: the same measure for `CCOc1cc(/C=C2\CCc3cc(O)ccc3C2=O)ccc1O` [C4, (E)-2-(3-ethoxy-4-hydroxybenzylidene)-6-hydroxy-3,4-dihydronaphthalen-1(2H)-one]: 21.4 ± 3.1 µM; for `O=C1/C(=C/c2ccc(O)cc2)CCc2cc(O)ccc21` [C5, (E)-6-hydroxy-2-(4-hydroxybenzylidene)-3,4-dihydronaphthalen-1(2H)-one]: 48.6 ± 2.9 µM; for `COc1ccc(/C=C2\CCc3cc(O)ccc3C2=O)cc1OC` [C6, (E)-2-(3,4-dimethoxybenzylidene)-6-hydroxy-3,4-dihydronaphthalen-1(2H)-one]: 17.6 ± 2.4 µM. The compound `O=C1/C(=C/c2ccc(Cl)cc2)CCc2cc(O)ccc21` [C7, (E)-2-(4-chlorobenzylidene)-6-hydroxy-3,4-dihydronaphthalen-1(2H)-one] yielded a half-maximal inhibitory concentration (IC50) of 22.4 ± 3.1 µM. Compound `COc1cc(/C=C2\CCc3cc(O)ccc3C2=O)cc(OC)c1O` [C9, (E)-6-hydroxy-2-(4-hydroxy-3,5-dimethoxy-benzylidene)-3,4-dihydronaphthalen-1(2H)-one] yielded a half-inhibitory concentration (IC50) above 50 µM.

A further assay has as its target T1, mushroom tyrosinase.
Experiment: not given
To be noted: Lineweaver-Burk plot, L-DOPA substrate.
With `COc1cc(/C=C2\CCc3cc(O)ccc3C2=O)cc(OC)c1OC` [C2, (E) - 6-hydroxy - 2-(3,4,5-trimethoxy-benzylidene)-3,4-dihydronaphthalen-1(2H)-one], the inhibition type entry is “competitively; also recorded: competitive tyrosinase inhibitor”.
